This note sets out measurements from the OligoGym collection.

HELM strings list units from the 5' end as sugar, base in round brackets, then linkage (d deoxyribose, r ribose, m 2'-O-methyl, p phosphodiester). Strings are as the collection lists them; they lack the last nucleoside at the 3' end of the tested compound. [moe] = 2'-O-(2-methoxyethyl) (MOE); [sp] = phosphorothioate linkage; [m5C] = 5-methylcytosine

The data set addresses ATXN3. In words: mouse, dose not given. To be noted: ASO.
On to “RNA1{[moe](G)[sp].[moe]([m5C])p.[moe](T)p.[moe]([m5C])p.[moe](A)p.d(T)[sp].d(T)[sp].d(T)[sp].d(A)[sp].d(T)[sp].d(T)[sp].d([m5C])[sp].d(T)[sp].d([m5C])[sp].d(A)[sp].[moe](A)p.[moe](G)p.[moe](T)[sp].[moe](A)}$$$$ (last 3' nucleoside missing)”, for which the 3 h FOB score was determined as 1 score 0-7.
For “RNA1{[moe](G)[sp].[moe]([m5C])p.[moe]([m5C])[sp].[moe](A)[sp].[moe](A)[sp].d(A)[sp].d(A)[sp].d(T)[sp].d(A)[sp].d([m5C])[sp].d(T)[sp].d(A)[sp].d(A)[sp].d([m5C])[sp].d(A)[sp].[moe](T)[sp].[moe]([m5C])p.[moe](A)[sp].[moe](G)}$$$$ (last 3' nucleoside missing)”, the 3 h FOB score stood at 2.5 score 0-7.
To “RNA1{[moe](G)[sp].[moe]([m5C])p.[moe]([m5C])p.[moe](A)p.[moe](A)[sp].d(T)[sp].d(A)[sp].d(T)[sp].d(T)[sp].d(T)[sp].d(A)[sp].d(T)[sp].d(A)[sp].d(G)[sp].d(G)[sp].[moe](T)p.[moe](G)p.[moe]([m5C])[sp].[moe](T)}$$$$ (last 3' nucleoside missing)” belongs 3 score 0-7; to “RNA1{[moe](G)[sp].[moe]([m5C])p.[moe]([m5C])p.[moe](A)p.[moe](A)p.d(T)[sp].d(A)[sp].d(T)[sp].d(T)[sp].d(T)[sp].d(A)[sp].d(T)[sp].d(A)[sp].d(G)[sp].d(G)[sp].[moe](T)p.[moe](G)p.[moe]([m5C])[sp].[moe](T)}$$$$ (last 3' nucleoside missing)”, 1.5 score 0-7; to “RNA1{[moe](G)[sp].[moe]([m5C])p.[moe]([m5C])p.[moe](A)p.[moe](T)p.[moe](T)p.d(A)[sp].d(A)[sp].d(T)[sp].d([m5C])[sp].d(T)[sp].d(A)[sp].d(T)[sp].d(A)[sp].d([m5C])[sp].d(T)[sp].[moe](G)p.[moe](A)[sp].[moe](A)}$$$$ (last 3' nucleoside missing)”, 0 score 0-7.
As for “RNA1{[moe](G)[sp].[moe]([m5C])p.[moe]([m5C])p.[moe](A)p.[moe](T)p.d(T)[sp].d(A)[sp].d(A)[sp].d(T)[sp].d([m5C])[sp].d(T)[sp].d(A)[sp].d(T)[sp].d(A)[sp].d([m5C])[sp].[moe](T)p.[moe](G)p.[moe](A)[sp].[moe](A)}$$$$ (last 3' nucleoside missing)”, the 3 h FOB score stood at 1 score 0-7.
In the case of “RNA1{[moe](T)[sp].[moe](A)[sp].[moe](A)p.[moe](T)p.[moe](A)[sp].d([m5C])[sp].d(T)[sp].d(T)[sp].d(T)[sp].d(T)[sp].d(T)[sp].d([m5C])[sp].d([m5C])[sp].d(A)[sp].d(G)[sp].[moe]([m5C])p.[moe]([m5C])p.[moe](T)[sp].[moe](T)}$$$$ (last 3' nucleoside missing)” it was 1.5 score 0-7; in that of “RNA1{[moe](T)[sp].[moe](A)p.[moe](A)p.[moe](T)p.[moe](A)[sp].d([m5C])[sp].d(T)[sp].d(T)[sp].d(U)[sp].d(T)[sp].d(T)[sp].d([m5C])[sp].d([m5C])[sp].d(A)[sp].d(G)[sp].[moe]([m5C])p.[moe]([m5C])p.[moe](T)[sp].[moe](T)}$$$$ (last 3' nucleoside missing)”, 1 score 0-7.
To “RNA1{[moe](T)[sp].[moe](A)p.[moe](A)p.[moe](T)p.[moe](A)[sp].d([m5C])[sp].d(U)[sp].d(T)[sp].d(T)[sp].d(T)[sp].d(T)[sp].d([m5C])[sp].d([m5C])[sp].d(A)[sp].d(G)[sp].[moe]([m5C])p.[moe]([m5C])p.[moe](T)[sp].[moe](T)}$$$$ (last 3' nucleoside missing)” belongs 1 score 0-7; to “RNA1{[moe](T)[sp].[moe](A)p.[moe](A)p.[moe](T)p.[moe](A)p.[moe]([m5C])p.d(T)[sp].d(T)[sp].d(T)[sp].d(T)[sp].d(T)[sp].d([m5C])[sp].d([m5C])[sp].d(A)[sp].d(G)[sp].d([m5C])[sp].[moe]([m5C])p.[moe](T)[sp].[moe](T)}$$$$ (last 3' nucleoside missing)”, 3 score 0-7.
